Patent US20210386505A1, “BACTERIAL BIOFILM STAINING DEVICE AND METHODS OF USE” (University of Utah Research Foundation, priority 2020, published 2021)

Legend:
S. aureus biofilms = test: Visual MB staining of biofilms on orthopedic coupons, confirmed by SEM; format: cell-based, Staphylococcus aureus; conditions: S. aureus biofilms on titanium, cobalt chromium, polyethylene, PEEK coupons; dilute MB
Experimental: (§1) Staphylococcus aureus (ATCC 6538) and Pseudomonas aeruginosa (ATCC 27853) biofilms were grown for the respective experiments (2 days) in a CBR 90 CDC biofilm reactor (BioSurface Technologies Corporation, Bozeman, Mont.) on either titanium, cobalt chromium, polyether ether ketone (PEEK), and polyethylene (PE) coupons using previously established methods. Briefly, a 0.5 McFarland standard (˜7.5×10^7 colony forming units (CFU)) was made from a 24 hour tryptic soy agar plate culture; 1 mL was then used to inoculate 500 mL of 100% Brain Heart Infusion (BHI) broth in the biofilm reactor. The reactor and its contents were incubated at 34° C. on a hot plate with baffle rotation for 24 hours. After 24 hours, the reactor was flushed continuously with 10% BHI at 6.94 mL/min for the subsequent 24 hours. Prior to subsequent work, the biofilm coupons were removed aseptically and rinsed in PBS. Quantification of biofilm bioburden was performed on representative coupons from each reactor by dispersing the respective biofilm into 2 mL of fresh 1× phosphate buffered saline (PBS) following an established protocol: sequentially vortexing for 1 minute, sonicating for 10 minutes and vortexing […]. The CFUs were calculated by 10-fold serial dilution plating and colony counting. […]

P. aeruginosa biofilms = test: as above; format: cell-based, Pseudomonas aeruginosa; conditions: P. aeruginosa biofilms on titanium, cobalt chromium, polyethylene, PEEK coupons; dilute MB
Experimental: as §1

[1] = system: Staphylococcus aureus (ATCC 6538) biofilms; test: Transmission light photometry of MB bound to stained biofilms; format: cell-based; conditions: S. aureus biofilm, 0.01% MB, 5 min stain, n=6
Experimental: as §1, with “After 24 hours, the reactor was flushed continuously with 10% BHI at 6.94 mL/min for the subsequent 24 hours. Prior to subsequent work, the biofilm coupons were removed aseptically and rinsed in PBS.” left out
(§2) Transmission photometry was used to determine the amount of MB bound to biofilms grown and stained using the above protocols. […] The exposure was fixed for all images analyzed; ambient light sources were eliminated by darkening the room. […]

[2] = system: Pseudomonas aeruginosa (ATCC 27853) biofilms; test: as above; format: cell-based; conditions: P. aeruginosa biofilm, 0.01% MB, 5 min stain, n=6
Experimental: as §1, with “After 24 hours, the reactor was flushed continuously with 10% BHI at 6.94 mL/min for the subsequent 24 hours. Prior to subsequent work, the biofilm coupons were removed aseptically and rinsed in PBS.” left out
as §2

CN(C)c1ccc2nc3ccc(=[N+](C)C)cc-3sc2c1 [MB, methylene blue]
visual staining of biofilm (S. aureus biofilms): visually turned blue | visual staining of biofilm (P. aeruginosa biofilms): visually turned blue | number of MB molecules per CFU [1]: 6.95×10^6 molecules/CFU | number of MB molecules per CFU [2]: 2.84×10^7 molecules/CFU
